Values quoted from earlier work as cited in patent US20120065267A1, “COMPOSITIONS INCLUDING 3,5-L-T2 AND METHODS OF USE THEREOF” (priority 2010, published 2012).
Read-outs that look alike come from different tables or passages of the source.

Assays:
TR α1, β1 and β2 = details: in vitro; cited from earlier work
[1] = test system: hypercholesterolemic patients; details: cited from earlier work

Row | SMILES | binding affinity relative to that of T2 (TR α1, β1 and β2) | patients with coronary artery disease experiencing increased anginal symptoms ([1]; 300 mg daily for 8 months) | patients with coronary artery disease who died suddenly from presumed myocardial infarction ([1]; 300 mg daily for 8 months) | decrease in total serum cholesterol ([1]; 300 mg daily, at 20 weeks) | mean heart rate on treatment ([1]; 300 mg daily, increase from 76) | efficacy at lower doses ([1]; doses of less than 250 mg/day) | decrease in body weight ([1]; euthyroid subjects, 300 mg daily for 8 months) | decrease in body weight ([1]; hypothyroid patients, 300 mg daily for 8 months)
1 | N[C@@H](Cc1cc(I)c(Oc2ccc(O)c(I)c2)c(I)c1)C(=O)O [T3, (2S)-2-amino-3-[4-(4-hydroxy-3-iodophenoxy)-3,5-diiodophenyl]propanoic acid] | 40-500 fold |  |  |  |  |  |  | 
2 | N[C@H](Cc1cc(I)c(Oc2ccc(O)cc2)c(I)c1)C(=O)O [3,5-D-T2] |  | 7 of 13 | 2 of the 13 | 20% | 88 beats per minute | ineffective | 5% | 8%
